# Legend:
# perfused porcine liver [1] = experiment: Atorvastatin normothermic machine perfusion of ex vivo porcine liver, perfusate and bile analysed by LC/MS; type: in vitro ADME, Sus scrofa domesticus; details: for % billiary clearance (metabolite abundance as percentage of given Atorvastatin dose): 0-120 min, Atorva alone, 0.104 mg atorvastatin to portal vein, bile, n = 1
# Protocol: Porcine Livers. Livers were obtained from a local slaughterhouse (Sus scrofa domesticus, approximately at the age of 6 months, with body weight between 100 and 120 kg). Pigs were sacrificed by a standardized procedure of electrocution followed by exsanguination. Thereafter, 3 L of blood was collected in a container supplemented with 25,000 IU of heparin. All abdominal organs were dissected outside the animal and collected. Within 20 minutes after termination, the vena porta was cannulated and directly flushed by gravity with 3 L of NaCl 0.9% (Baxter BV, Utrecht, The Netherlands) supplemented with 5000 IU of heparin followed by 2 L of ice-cold histidine-tryptophan-ketoglutarate solution (Plegistore, Warszawa, Poland). In the meantime, the arteria hepatica was dissected, cannulated, and subsequently flushed with histidine-tryptophan-ketoglutarate. At the laboratory, side branches were ligated, and the common bile duct was cannulated, whereas the ductus cysticus, derived from the gall bladder, was ligated. Normothermic Machine Perfusion. The porcine livers were perfused using the LiverAssist device (XVIVO, Groningen, The Netherlands). The machine consists of two rotary pumps that provide a pulsatile flow to the hepatic artery and a continuous flow to the portal vein. The system was filled with 2 L perfusion fluid containing red blood cells and perfusate (Table 2). […] Additionally, amino acids and vitamins were continuously provided to keep the liver metabolically active. Gas delivery to the LiverAssist consisted of 95% oxygen and 5% carbon dioxide at 2 L/min, and the temperature was set at 39 C (body temperature pigs). […] Arterial blood gas samples were taken hourly to monitor liver viability (PH, glucose, Na, K, lactate, etc.) using the i-STAT clinical analyzer (Abbot Point of Care Inc., Princeton, NJ). […] Time of starting the slow bolus was set at t=0 min. […] Drug concentrations in perfusate, bile and liver biopsies were determined by LC-MS/MS analysis as described below. […] Briefly, 20 μL of sample was extracted by adding 100 μL of acetonitrile containing internal standard. […] Samples were then mixed with 50 μL of water, vortexed and injected in to LC/MS for quantification. The mass spectrometer (AB Sciex API 5500) was operated in electrospray positive ion mode with the capillary voltage of 5.5 kV and Spray temperature of 550° C. The multiple reaction monitoring transitions used for all the compounds are shown table 4.
# perfused porcine liver [2] = experiment: Midazolam continuous portal administration to ex vivo perfused porcine liver, metabolite quantified by UPLC/MS
# [3] = 240 min of perfusion, input of 49.8 mg midazolam
# [4] = from 40 mg midazolam (as summarised in description)
smiles,measurement,setting,value
CC(C)c1c(C(=O)Nc2ccccc2)c(-c2ccccc2)c(-c2ccc(F)cc2)n1CC[C@@H]1C[C@@H](O)CC(=O)O1 [Atorvastatin lactone],% billiary clearance (metabolite abundance as percentage of given Atorvastatin dose),perfused porcine liver [1],9.17%
"CC(C)c1c(C(=O)Nc2ccccc2O)c(-c2ccccc2)c(-c2ccc(F)cc2)n1CCC(O)CC(O)CC(=O)O (stereo not drawn) [2-hydroxy atorva, 2-hydroxy atorvastatin]",% billiary clearance (metabolite abundance as percentage of given Atorvastatin dose),perfused porcine liver [1],5.33%
"CC(C)c1c(C(=O)Nc2ccccc2O)c(-c2ccccc2)c(-c2ccc(F)cc2)n1CCC1CC(O)CC(=O)O1 (stereo not drawn) [2-hydroxy atorva lactone, 2-hydroxy atorvastatin lactone]",% billiary clearance (metabolite abundance as percentage of given Atorvastatin dose),perfused porcine liver [1],3.48%
"CC(C)c1c(C(=O)Nc2ccc(O)cc2)c(-c2ccccc2)c(-c2ccc(F)cc2)n1CCC1CC(O)CC(=O)O1 (stereo not drawn) [4-hydroxy atorva lactone, 4-hydroxy atorvastatin lactone]",% billiary clearance (metabolite abundance as percentage of given Atorvastatin dose),perfused porcine liver [1],0.400%
"O=C(O)[C@H]1O[C@@H](OCc2ncc3n2-c2ccc(Cl)cc2C(c2ccccc2F)=NC3)[C@H](O)[C@@H](O)[C@@H]1O [1-OH midazolam glucuronide, midazolam 1′O-glucuronide]",presence in perfusate (chromatogram),perfused porcine liver [2]; 240 min after starting the portal administration of midazolam,(abundant) presence
same,"Yield 1-OH midazolam glucuronide, Bile",perfused porcine liver [2]; [3],0.254 mg
same,"Yield 1-OH midazolam glucuronide, Perfusate",perfused porcine liver [2]; [3],1.19 mg
same,"Yield 1-OH midazolam glucuronide, Tissue",perfused porcine liver [2]; [3],1.891 mg
same,"Yield 1-OH midazolam glucuronide, Total","perfused porcine liver [2]; 240 min of perfusion, input of 49.8 mg midazolam, sum of perfusate, bile, tissue",3.33 mg 1-OH midazolam glucuronide
same,metabolite obtained from liver tissue,perfused porcine liver [2]; [4],2 mg
same,metabolite obtained from plasma and bile,perfused porcine liver [2]; [4],1.5 mg
same,total metabolite produced,perfused porcine liver [2]; [4],3.5 mg
"CC(C)c1c(C(=O)Nc2ccc(O)cc2)c(-c2ccccc2)c(-c2ccc(F)cc2)n1CC[C@@H](O)C[C@@H](O)CC(=O)O [4-hydroxy atorva, 4-hydroxy atorvastatin]",% billiary clearance (metabolite abundance as percentage of given Atorvastatin dose),perfused porcine liver [1],10.28%
"CC(C)c1c(C(=O)Nc2ccccc2)c(-c2ccccc2)c(-c2ccc(F)cc2)n1CC[C@@H](O)C[C@@H](O)CC(=O)O [atorvastatin, Atorvastatin, reference compound]",time until atorvastatin was detected in the bile,"perfused porcine liver [1]; after the start of the bolus administration, slow bolus of 0.104 mg over 10 minutes to portal vein",≤ 10 min
same,parent compound secreted into the bile,"perfused porcine liver [1]; within 120 min of perfusion, 0.104 mg to portal vein",13.0±5.6%
